Values after ≈ are worked out from the molar mass of the structure shown. “Also recorded” adds a separate entry of the source.
Key:
N. gonorrhoeae [1] = test: MIC against N. gonorrhoeae clinical isolates, normal and CO2 conditions; assay type: cell-based; details: Neisseria gonorrhoeae
Experimental: (§1) These tests were performed in normal culture conditions with standard CO2 levels and in CO2 (5% in incubator) conditions.

ATCC strain 700825 = test: MICs against ATCC strain 700825; assay type: cell-based, N. gonorrhoeae; details: Neisseria gonorrhoeae
Experimental: as §1

N. gonorrhoeae [2] = test: MIC by agar dilution on a larger panel of N. gonorrhoeae strains; assay type: cell-based, Neisseria gonorrhoeae; details: for MIC: Neisseria gonorrhoeae, read-out: MIC
Experimental: as §1

CCOc1ccc2nc(S(N)(=O)=O)sc2c1 [Ethoxzolamide]
MIC (N. gonorrhoeae [1]; N. gonorrhoeae 178, Non CO2 environment): ≤ 0.5 µg/mL
MIC (N. gonorrhoeae [1]; N. gonorrhoeae 178, normal growth environment (with CO2)): > 64 µg/mL
MIC (N. gonorrhoeae [1]; N. gonorrhoeae 181, Non CO2 environment): ≤ 0.5 µg/mL
MIC (N. gonorrhoeae [1]; N. gonorrhoeae 181, normal growth environment (with CO2)): > 64 µg/mL
MIC (N. gonorrhoeae [1]; N. gonorrhoeae 194, Non CO2 environment): ≤ 0.5 µg/mL
MIC (N. gonorrhoeae [1]; N. gonorrhoeae 194, normal growth environment (with CO2)): > 64 µg/mL
MIC (ATCC strain 700825; ATCC700825, In CO2): 64 µg/mL (≈ 248 µM)
MIC (ATCC strain 700825; ATCC700825, In air): 0.5 µg/mL (≈ 1.94 µM)
activity against N. gonorrhoeae under CO2 conditions (N. gonorrhoeae [2]; CO2 conditions versus standard conditions, listed as EZM): did not maintain any activity; also recorded: significant reduction of activity
MIC (N. gonorrhoeae [2]; N. gonorrhoeae 165, CO2 (5% CO2 containing air)): > 128 µg/mL
MIC (N. gonorrhoeae [2]; N. gonorrhoeae 166, CO2 (5% CO2 containing air)): > 128 µg/mL
MIC (N. gonorrhoeae [2]; N. gonorrhoeae 166, Non CO2 (ambient air)): 0.06 µg/mL (≈ 0.232 µM)
MIC (N. gonorrhoeae [2]; N. gonorrhoeae 167, CO2 (5% CO2 containing air)): 64 µg/mL (≈ 248 µM)
MIC (N. gonorrhoeae [2]; N. gonorrhoeae 167, Non CO2 (ambient air)): 0.25 µg/mL (≈ 0.968 µM)
MIC (N. gonorrhoeae [2]; N. gonorrhoeae 170, CO2 (5% CO2 containing air)): > 128 µg/mL
MIC (N. gonorrhoeae [2]; N. gonorrhoeae 170, Non CO2 (ambient air)): 0.06 µg/mL (≈ 0.232 µM)
MIC (N. gonorrhoeae [2]; N. gonorrhoeae 171, CO2 (5% CO2 containing air)): 64 µg/mL (≈ 248 µM)
MIC (N. gonorrhoeae [2]; N. gonorrhoeae 173, CO2 (5% CO2 containing air)): 128 µg/mL (≈ 496 µM)
MIC (N. gonorrhoeae [2]; N. gonorrhoeae 174, CO2 (5% CO2 containing air)): > 128 µg/mL
MIC (N. gonorrhoeae [2]; N. gonorrhoeae 175, CO2 (5% CO2 containing air)): > 128 µg/mL
MIC (N. gonorrhoeae [2]; N. gonorrhoeae 175, Non CO2 (ambient air)): 0.25 µg/mL (≈ 0.968 µM)
MIC (N. gonorrhoeae [2]; N. gonorrhoeae 176, CO2 (5% CO2 containing air)): 128 µg/mL (≈ 496 µM)
MIC (N. gonorrhoeae [2]; N. gonorrhoeae 176, Non CO2 (ambient air)): 0.25 µg/mL (≈ 0.968 µM)
MIC (N. gonorrhoeae [2]; N. gonorrhoeae 177, CO2 (5% CO2 containing air)): 16 µg/mL (≈ 61.9 µM)
MIC (N. gonorrhoeae [2]; N. gonorrhoeae 177, Non CO2 (ambient air)): 0.5 µg/mL (≈ 1.94 µM)
MIC (N. gonorrhoeae [2]; N. gonorrhoeae 178, CO2 (5% CO2 containing air)): > 128 µg/mL
MIC (N. gonorrhoeae [2]; N. gonorrhoeae 178, Non CO2 (ambient air)): 0.06 µg/mL (≈ 0.232 µM)
MIC (N. gonorrhoeae [2]; N. gonorrhoeae 179, CO2 (5% CO2 containing air)): > 128 µg/mL
MIC (N. gonorrhoeae [2]; N. gonorrhoeae 179, Non CO2 (ambient air)): 0.25 µg/mL (≈ 0.968 µM)
MIC (N. gonorrhoeae [2]; N. gonorrhoeae 180, CO2 (5% CO2 containing air)): > 128 µg/mL
MIC (N. gonorrhoeae [2]; N. gonorrhoeae 181, CO2 (5% CO2 containing air)): 64 µg/mL (≈ 248 µM)
MIC (N. gonorrhoeae [2]; N. gonorrhoeae 181, Non CO2 (ambient air)): 0.25 µg/mL (≈ 0.968 µM)
MIC (N. gonorrhoeae [2]; N. gonorrhoeae 182, CO2 (5% CO2 containing air)): 64 µg/mL (≈ 248 µM)
MIC (N. gonorrhoeae [2]; N. gonorrhoeae 182, Non CO2 (ambient air)): 0.25 µg/mL (≈ 0.968 µM)
MIC (N. gonorrhoeae [2]; N. gonorrhoeae 183, CO2 (5% CO2 containing air)): 32 µg/mL (≈ 124 µM)
MIC (N. gonorrhoeae [2]; N. gonorrhoeae 184, CO2 (5% CO2 containing air)): 32 µg/mL (≈ 124 µM)
MIC (N. gonorrhoeae [2]; N. gonorrhoeae 184, Non CO2 (ambient air)): 0.25 µg/mL (≈ 0.968 µM)
MIC (N. gonorrhoeae [2]; N. gonorrhoeae 185, CO2 (5% CO2 containing air)): 64 µg/mL (≈ 248 µM)
MIC (N. gonorrhoeae [2]; N. gonorrhoeae 186, CO2 (5% CO2 containing air)): 64 µg/mL (≈ 248 µM)
MIC (N. gonorrhoeae [2]; N. gonorrhoeae 188, CO2 (5% CO2 containing air)): 64 µg/mL (≈ 248 µM)
MIC (N. gonorrhoeae [2]; N. gonorrhoeae 188, Non CO2 (ambient air)): 0.06 µg/mL (≈ 0.232 µM)
MIC (N. gonorrhoeae [2]; N. gonorrhoeae 191, CO2 (5% CO2 containing air)): > 128 µg/mL
MIC (N. gonorrhoeae [2]; N. gonorrhoeae 191, Non CO2 (ambient air)): 0.06 µg/mL (≈ 0.232 µM)
MIC (N. gonorrhoeae [2]; N. gonorrhoeae 193, CO2 (5% CO2 containing air)): 64 µg/mL (≈ 248 µM)
MIC (N. gonorrhoeae [2]; N. gonorrhoeae 194, CO2 (5% CO2 containing air)): 64 µg/mL (≈ 248 µM)
MIC (N. gonorrhoeae [2]; N. gonorrhoeae 194, Non CO2 (ambient air)): 0.25 µg/mL (≈ 0.968 µM)
MIC (N. gonorrhoeae [2]; N. gonorrhoeae 196, CO2 (5% CO2 containing air)): > 128 µg/mL

Reference: patent US20220213047A1, “CARBONIC ANHYDRASE INHIBITORS FOR TREATMENT OF NEISSERIA GONORRHOEAE INFECTION” (Purdue Research Foundation, priority 2021, published 2022)
